Data published in article PMC10485003, “Antibiotic hyper-resistance in a class I aminoacyl-tRNA synthetase with altered active site signature motif” (Nature Communications, 2023).
“And” between values parts separate entries of the source, which are not always exact repeats. Identical values can stand only once.

Tested on: W130Q PmIleRS2
Experiment: ATP-PPi exchange assay, mupirocin inhibition of amino acid activation
Type: biochemical, Priestia (Bacillus) megaterium
Settings: for vo (initial enzyme velocity): Replica 1-3
Method: L-Ile and ATP concentrations ranged from 1/10 KM to 10 KM values. When measuring the KI towards one of the substrates, the other was held in saturation (concentrations at least 10 KM). The aliquots of the reaction mixture (1–2.5 μl) were quenched in 2 volumes of 500 mM NaOAc pH = 4.5, 0.1% SDS, and formed ^32P-ATP was separated from the remaining ^32P-PPi by thin-layer chromatography on Polygram CEL 300 PEI UV254 TLC plates (Macherey-Nagel, cat: 801063) using 750 mM KH2PO4 pH=3.5, 4 M urea buffer. Visualization and quantification of the signals was performed using a Typhoon Phosphoimager 5 (General Electric) and accompanying ImageQuant™ TL software (SV: 10.2). The kinetic constants were determined using a global fit option of the competitive inhibition model of GraphPad Prism 6 software (SV: 6.01). All experiments were performed in triplicates. The kcat was determined by dividing the maximal velocity, VM, with the used enzyme concentration.
Source data are provided as a Source Data file. Data are presented as the average value
± SD of three independent experiments. b) A 2Fo-Fc Fourier difference map of the W130Q-HVGH-PmIleRS2:Ile-AMS […]

C/C(=C\C(=O)OCCCCCCCCC(=O)O)C[C@@H]1OC[C@H](C[C@@H]2O[C@H]2[C@@H](C)[C@H](C)O)[C@@H](O)[C@H]1O [mupirocin]
vo (initial enzyme velocity) (c (mupirocin) = 1.0 μM, c (ATP) 5.0 mM, raw data for KI(MUP) towards ATP): 0.02357 mM/min and 0.02647 mM/min and 0.02323 mM/min
vo (initial enzyme velocity) (c (mupirocin) = 1.0 μM, c (ATP) 10.0 mM, raw data for KI(MUP) towards ATP): 0.0305 mM/min and 0.03243 mM/min and 0.02895 mM/min
vo (initial enzyme velocity) (c (mupirocin) = 1.0 μM, c (ATP) 15.0 mM, raw data for KI(MUP) towards ATP): 0.0343 mM/min and 0.0357 mM/min and 0.0344 mM/min
vo (initial enzyme velocity) (c (mupirocin) = 1.0 μM, c (ATP) 25.0 mM, raw data for KI(MUP) towards ATP): 0.03769 mM/min and 0.03939 mM/min and 0.0387 mM/min
vo (initial enzyme velocity) (c (mupirocin) = 1.0 μM, c (Ile) 10.0 μM, raw data for KI(MUP) towards Ile): 0.0192 mM/min
vo (initial enzyme velocity) (c (mupirocin) = 1.0 μM, c (Ile) 20.0 μM, raw data for KI(MUP) towards Ile): 0.02795 mM/min and 0.02585 mM/min and 0.02685 mM/min
vo (initial enzyme velocity) (c (mupirocin) = 1.0 μM, c (Ile) 40.0 μM, raw data for KI(MUP) towards Ile): 0.03537 mM/min and 0.0321 mM/min and 0.03467 mM/min
vo (initial enzyme velocity) (c (mupirocin) = 1.0 μM, c (Ile) 80.0 μM, raw data for KI(MUP) towards Ile): 0.04151 mM/min and 0.04237 mM/min and 0.04366 mM/min
vo (initial enzyme velocity) (c (mupirocin) = 1.0 μM, c (Ile) 120.0 μM, raw data for KI(MUP) towards Ile): 0.0461 mM/min and 0.04503 mM/min and 0.04686 mM/min
vo (initial enzyme velocity) (c (mupirocin) = 5.0 μM, c (ATP) 5.0 mM, raw data for KI(MUP) towards ATP): 0.0136 mM/min and 0.01356 mM/min and 0.01125 mM/min
vo (initial enzyme velocity) (c (mupirocin) = 5.0 μM, c (ATP) 10.0 mM, raw data for KI(MUP) towards ATP): 0.021 mM/min and 0.0203 mM/min and 0.0182 mM/min
vo (initial enzyme velocity) (c (mupirocin) = 5.0 μM, c (ATP) 15.0 mM, raw data for KI(MUP) towards ATP): 0.02537 mM/min and 0.0244 mM/min and 0.02261 mM/min
vo (initial enzyme velocity) (c (mupirocin) = 5.0 μM, c (ATP) 25.0 mM, raw data for KI(MUP) towards ATP): 0.02943 mM/min and 0.02877 mM/min and 0.02783 mM/min
vo (initial enzyme velocity) (c (mupirocin) = 5.0 μM, c (Ile) 10.0 μM, raw data for KI(MUP) towards Ile): 0.00903 mM/min and 0.00774 mM/min and 0.00698 mM/min
vo (initial enzyme velocity) (c (mupirocin) = 5.0 μM, c (Ile) 20.0 μM, raw data for KI(MUP) towards Ile): 0.01459 mM/min and 0.01343 mM/min and 0.013 mM/min
vo (initial enzyme velocity) (c (mupirocin) = 5.0 μM, c (Ile) 40.0 μM, raw data for KI(MUP) towards Ile): 0.0221 mM/min and 0.01963 mM/min and 0.02145 mM/min
vo (initial enzyme velocity) (c (mupirocin) = 5.0 μM, c (Ile) 80.0 μM, raw data for KI(MUP) towards Ile): 0.02978 mM/min and 0.02747 mM/min and 0.02888 mM/min
vo (initial enzyme velocity) (c (mupirocin) = 5.0 μM, c (Ile) 120.0 μM, raw data for KI(MUP) towards Ile): 0.03377 mM/min
vo (initial enzyme velocity) (c (mupirocin) = 10.0 μM, c (ATP) 5.0 mM, raw data for KI(MUP) towards ATP): 0.00715 mM/min and 0.00752 mM/min and 0.00698 mM/min
vo (initial enzyme velocity) (c (mupirocin) = 10.0 μM, c (ATP) 10.0 mM, raw data for KI(MUP) towards ATP): 0.01301 mM/min and 0.0137 mM/min and 0.0124 mM/min
vo (initial enzyme velocity) (c (mupirocin) = 10.0 μM, c (ATP) 15.0 mM, raw data for KI(MUP) towards ATP): 0.0168 mM/min and 0.01667 mM/min and 0.01548 mM/min
vo (initial enzyme velocity) (c (mupirocin) = 10.0 μM, c (ATP) 25.0 mM, raw data for KI(MUP) towards ATP): 0.02198 mM/min and 0.0226 mM/min and 0.02035 mM/min
vo (initial enzyme velocity) (c (mupirocin) = 10.0 μM, c (Ile) 20.0 μM, raw data for KI(MUP) towards Ile): 0.00596 mM/min and 0.0067 mM/min and 0.0071 mM/min
vo (initial enzyme velocity) (c (mupirocin) = 10.0 μM, c (Ile) 40.0 μM, raw data for KI(MUP) towards Ile): 0.01336 mM/min and 0.01164 mM/min and 0.01202 mM/min
vo (initial enzyme velocity) (c (mupirocin) = 10.0 μM, c (Ile) 80.0 μM, raw data for KI(MUP) towards Ile): 0.02022 mM/min and 0.01917 mM/min and 0.021 mM/min
vo (initial enzyme velocity) (c (mupirocin) = 10.0 μM, c (Ile) 120.0 μM, raw data for KI(MUP) towards Ile): 0.0257 mM/min and 0.02427 mM/min and 0.02578 mM/min
vo (initial enzyme velocity) (c (mupirocin) = 25.0 μM, c (ATP) 5.0 mM, raw data for KI(MUP) towards ATP): 0.00415 mM/min and 0.00472 mM/min and 0.00553 mM/min
vo (initial enzyme velocity) (c (mupirocin) = 25.0 μM, c (ATP) 10.0 mM, raw data for KI(MUP) towards ATP): 0.0064 mM/min and 0.00737 mM/min and 0.0088 mM/min
vo (initial enzyme velocity) (c (mupirocin) = 25.0 μM, c (ATP) 15.0 mM, raw data for KI(MUP) towards ATP): 0.01013 mM/min and 0.00993 mM/min and 0.01101 mM/min
vo (initial enzyme velocity) (c (mupirocin) = 25.0 μM, c (ATP) 25.0 mM, raw data for KI(MUP) towards ATP): 0.01337 mM/min and 0.01219 mM/min and 0.01445 mM/min
vo (initial enzyme velocity) (c (mupirocin) = 25.0 μM, c (Ile) 10.0 μM, raw data for KI(MUP) towards Ile): 0.0021 mM/min and 0.00205 mM/min and 0.00211 mM/min
vo (initial enzyme velocity) (c (mupirocin) = 25.0 μM, c (Ile) 20.0 μM, raw data for KI(MUP) towards Ile): 0.00338 mM/min and 0.00346 mM/min
vo (initial enzyme velocity) (c (mupirocin) = 25.0 μM, c (Ile) 40.0 μM, raw data for KI(MUP) towards Ile): 0.00807 mM/min and 0.00657 mM/min and 0.00667 mM/min
vo (initial enzyme velocity) (c (mupirocin) = 25.0 μM, c (Ile) 80.0 μM, raw data for KI(MUP) towards Ile): 0.012 mM/min and 0.01121 mM/min and 0.01201 mM/min
vo (initial enzyme velocity) (c (mupirocin) = 25.0 μM, c (Ile) 120.0 μM, raw data for KI(MUP) towards Ile): 0.01558 mM/min and 0.01519 mM/min and 0.0161 mM/min
Ki for mupirocin compared with wild-type (kinetic analysis, Supplementary Fig. 8): remained the same
